The values below come from patent publication US10418127B2, “Method of formulating a skin-lightening composition” (The Procter & Gamble Company, priority 2012, dated 2019).

For assay [1], the system named is tert-Keratinocyte (tKC) cell line. Put plainly: C-map query with the composite skin tone benchmark signature. Type of assay: cell-based, human. To be noted: composite signature of Niacinamide, Hexamidine, Sepiwhite and NAG. The procedure:
Individual experiments (referred to as batches) generally comprise 30 to 96 samples analyzed using Affymetrix GeneChip® technology platforms, containing 6 replicates of the vehicle control (e.g., DSMO), 2 replicate samples of a positive control that gives a strong reproducible effect in the cell type used, and samples of the test material/perturbagen. Replication of the test material is done in separate batches due to batch effects. In vitro testing was performed in 6-well plates to provide sufficient RNA for GeneChip® analysis (2-4 μg total RNA yield/well).
Human telomerized keratinocytes (tKC) were obtained from the University of Texas, Southwestern Medical Center, Dallas, Tex. tKC cells were grown in EpiLife® media with 1× Human Keratinocyte Growth Supplement (Invitrogen, Carlsbad, Calif.) on collagen I coated cell culture flasks and plates (Becton Dickinson, Franklin Lakes, N.J.). Keratinocytes were seeded into 6-well plates at 20,000 cells/cm^2 24 hours before chemical exposure. Human skin fibroblasts (BJ cell line from ATCC, Manassas, Va.) were grown in Eagle's Minimal Essential Medium (ATCC) supplemented with 10% fetal bovine serum (HyClone, Logan, Utah) in normal cell culture flasks and plates (Corning, Lowell, Mass.). BJ fibroblasts were seeded into 6-well plates at 12,000 cells/cm^2 24 hours before chemical exposure. […]

Assay [2] has as its system Chinese females, 25-55 years old with hyperpigmented spots. Briefly: 9-week split-face, vehicle-controlled clinical skin tone benefit study. Format: in vivo, human. As to conditions: 0.05% in SC-99 vehicle, vs vehicle. The source says: This Example provides evidence of the advantages of using composite signatures and illustrates clinical affirmation of the C-map model for predicting efficacy of skin-lightening agents. This Example supports embodiments related to composite signatures (as described at the end of Example 3). An illustrative “Skin Tone” Signature developed from a genomics study using a composite skin-lightening benchmark agent signature is derived from Niacinamide, Hexamidine, Sepiwhite, and NAG. The signature is used to query C-map and generate a list of potential skin-lightening agents. A top hit, Chlorhexidine Diactate (CD) is entered into clinical testing for confirmation of efficacy. The control for clinical efficacy is a 5% Niacinamide +1% Sepiwhite formulation in the control vehicle.
Primary endpoints are changes in color spot area fraction (image analysis) and melanin spot area fraction (NC2) from baseline. Secondary endpoints are changes from baseline in L*a*b (color image analysis), mean melanin gray scale (NC2), and melanin evenness (NC2). Texture area fraction and pore area fraction are also evaluated to explore impact on other aspects relating to overall skin tone. […] Statistically significant superiority to the high efficacy benchmark skin active agent to vehicle performance is the clinical success criteria.
Study Design: The experimental protocol included a 9-week (1-week preconditioning & 8-week treatment), randomized, double-blind, round robin, vehicle-controlled, split-face tone benefit study. The subject population included 330 Chinese females, 25-55 years old with hyperpigmented spots. 318 subjects completed the entire study. […] Olay Complete SPF 15 UV Moisturizing Lotion is concomitantly used during pre-conditioning and treatment. 0.5 g each test product per half-face (forehead to jaw line; ˜4 mg/cm^2) is dosed 2× a day (morning/evening). Color SAF and treatment area, Melanin SAF, gray scale, evenness by NC2, and additional measurement of Fine Lines and Wrinkle and Texture are by REAL 3.01A. Data collection points include baseline, and ends of weeks 4, 6 and 8. The tested hypothesis is that there is no difference in clinical endpoint versus the benchmark composition treatment. Study site is Kuntai Clinical Center, Beijing, China and study time frame is February 2010 (pre-conditioning) to April 2010.

The subject of assay [3] is ultraviolet-induced skin pigmentation. To be noted: Shimizu K. et al., Planta Med 2002; cited from earlier work.
Assay [4] addresses T1, tyrosinase (Homo sapiens, UniProt P14679).
T1 sequence (P14679 19-529): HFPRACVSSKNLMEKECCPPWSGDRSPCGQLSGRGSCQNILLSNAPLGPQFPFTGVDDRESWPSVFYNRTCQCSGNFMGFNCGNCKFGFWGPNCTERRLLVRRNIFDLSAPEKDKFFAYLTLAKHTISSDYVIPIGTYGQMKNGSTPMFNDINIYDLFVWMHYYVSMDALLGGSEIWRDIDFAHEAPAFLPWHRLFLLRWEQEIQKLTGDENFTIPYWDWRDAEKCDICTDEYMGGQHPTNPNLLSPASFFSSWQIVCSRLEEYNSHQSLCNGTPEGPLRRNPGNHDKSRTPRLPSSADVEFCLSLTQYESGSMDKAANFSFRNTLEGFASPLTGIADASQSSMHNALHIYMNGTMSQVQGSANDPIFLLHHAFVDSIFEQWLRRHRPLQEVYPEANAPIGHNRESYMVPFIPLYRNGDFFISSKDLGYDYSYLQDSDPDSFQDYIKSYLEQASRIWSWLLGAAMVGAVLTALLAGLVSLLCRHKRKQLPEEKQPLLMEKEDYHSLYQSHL
As to conditions: in vitro; cited from earlier work.

Assay [5] concerns melanocyte. As to conditions: in vitro; cited from earlier work.
The test system of assay [6] is melanosome transfer from melanocytes to keratinocytes. To be noted: in vitro; cited from earlier work.

Turning to `CC(=O)O.CC(=O)O.NC(=N\CCCCCC/N=C(N)/N=C(\N)Nc1ccc(Cl)cc1)/N=C(\N)Nc1ccc(Cl)cc1` [CD, Chlorhexidine Diacetate], in assay [1], the “connectivity to the tone composite benchmark signature query” value is recorded as “top connectivity hit”. In addition, the “spot area fraction color test” value in assay [2] (2x a day, week 8) is “significantly fewer spots when compared to vehicle”. Further, in assay [2] (week 8), the Basal skin tone entry is reported as “demonstrated superiority”, the Pore area fraction result is recorded as “superior efficacy” and the Texture area fraction entry is recorded as “superior efficacy”. Moreover, in assay [2] (weeks 6 and 8), the “NC2 Melanin evenness test” value was “superiority to the vehicle” and the “spot area fraction NC2 test” value is on record as “significantly reduced fraction when compared to the vehicle”.

With `COc1cc2oc(-c3ccc(O)cc3O)c(CC=C(C)C)c(=O)c2c(O)c1/C=C/C(C)C` [artocarpin], the skin-lightening efficacy entry in assay [3] was “some efficacy for skin-lightening”.

For `N[C@H]1C(O)O[C@H](CO)[C@@H](O)[C@@H]1O` (some centres unmarked) [glucosamine], the production of melanin entry in assay [4] is given as “reduces production of melanin by inhibiting activation of tyrosinase”.

As for `C=CCCCCCCCCC(=O)N[C@@H](Cc1ccccc1)C(=O)O` [N-undecylenoyl-L-phenylalanine], the “binding of alpha-MSH to the melanocyte” value in assay [5] is on record as “inhibit biding of alpha-MSH to the melanocyte”.

On to `NC(=O)c1cccnc1` [niacinamide], for which the melanosome transfer entry in assay [6] is on record as “inhibits melanosome transfer from melanocytes to keratinocytes”.
